# System: HPAEC monolayer
# Experiment: XPerT permeability visualization on biotinylated gelatin coated coverslips (FITC-avidin, VE-cadherin staining)
# Format: cell-based, human
# Conditions: thrombin 0.2 or 0.3 U/ml 15 min; forskolin 2 μM 30 min; 10× objective; FIG. 4A
# Procedure: Human pulmonary artery endothelial cells (HPAEC) were obtained from Lonza (Allendale, N.J.) and cultured in cell growth medium (EGM-2, Lonza) containing 10% fetal bovine serum (FBS). Cell cultures were maintained at 37° C. in a humidified 5% CO2 incubator and used for experiments at passages 5-8. In experiments with agonist stimulation, 10% FBS growth medium was replaced with 2% FBS growth medium for 2 hours prior to experiment. Measurements of transendothelial electrical resistance across a confluent endothelial cell monolayer were performed using the electrical cell-substrate impedance sensing system ECIS-1600 (Applied Biophysics, Troy, N.Y.). Transient transfections with cMyc-tagged RhoA-V14 or Rho kinase-CAT (6-553) were performed using PolyJet transfection reagent (SignaGen, Rockville, Md.) according to the manufacturer's protocol. In brief, HPAEC were seeded on 35 mm diameter cell culture dishes with biotinylated gelatin-treated coverslips at a density of 5×10^5 cells per dish. After 24 hours cells were transfected with 1 μg of plasmid DNA per dish (ratio: 1 μg of DNA per 3 μl of PolyJet). Permeability visualization experiments were performed 24 hours after transfection.
# Permeability visualization experiments were performed on 18×18 mm square Rinzle plastic coverslips. The coverslips, placed in 35 mm culture dishes, were coated with biotinylated gelatin as described above. […]
substance,measurement,value
thrombin,"FITC fluorescence at cell-cell junction areas, low magnification images",dramatic increase in FITC fluorescence in the intercellular gaps

# Reference: US9588106B2, “Methods and compositions for measuring cell permeability” (The University of Chicago, priority 2012, dated 2017)
